{"source": "patent US11173178B2", "about": "“Liposomes for drug delivery and methods for preparation thereof” (priority 2008, dated 2021)", "assay": "Stability of oxaliplatin in hydration solution (UV, absorbance at 254 nm)", "format": "physicochemical", "protocol": "Oxaliplatin was dissolved in a hydration solution containing 10% sucrose and 1 mM Calcium gluconate (10 mg/ml). Sucrose was added to obtain an osmolarity approximately corresponding to physiological salt concentration. Stability of oxaliplatin in the hydration solution was followed by UV measurement. Samples were taken continually during storage at room temperature. Sample concentration measured was 0.1 mg/ml oxaliplatin. In order to follow the oxaliplatin stability a scan was performed from 200-350 nm (FIG. 1) and the absorbance at 254 nm was compared during storage (FIG. 2). Major changes in absorbance at 254 nm are usually related to oxaliplatin decomposition, which can easily be observed by dissolving oxaliplatin in solutions containing hydroxide and/or chloride ions.", "data": [{"smiles": "O=C1[O][Pt]2([NH][C@@H]3CCCC[C@H]3[NH]2)[O]C1=O", "note": "[Oxaliplatin, oxaliplatin]", "values": [{"measurement": "decomposition during storage (absorbance at 254 nm)", "setting": "10% sucrose solution containing 1 mM calcium gluconate, room temperature, at least 35 days", "value": "practically no decomposition"}, {"measurement": "absorbance at 254 nm with common buffer components", "setting": "phosphate, citrate, acetate, ethanolamine (data not shown)", "value": "decrease the absorbance at 254 nm"}]}]}
